Molecules are shown by their SMILES.

The nature of this series: GHS categories as the set defines them, by LD50: 1 up to 5, 2 up to 50, 3 up to 300, 4 up to 2000, 5 above 2000 mg/kg. The settings on record: rat; in vivo; po.
For `O=S(=O)(O)c1ccc(/N=N/c2cc(CO)c(O)c(/N=N/c3ccc(S(=O)(=O)O)c4ccccc34)c2O)c2ccccc12`, the GHS category was 5.

In turn, `C[C@]12C=CC(=O)C=C1CC[C@@H]1[C@@H]2CC[C@@]2(C)[C@H]1CC[C@]2(C)O` came in with a GHS category of 4.

Compound `CCCCCCCCCCCCCCCCBr` gave a GHS category of 5. Then `O=C1OC(CN2CCOCC2)CC12CC(CN1CCOCC1)OC2=O` (centres undefined), with 5; and `Cc1ccc(NC(=O)N(C)C)cc1NC(=O)N(C)C`, with 5.

In turn, `CC(C)COC(=O)Nc1nc(N2CC=CCC2)cc2nc(=O)on12` returned a GHS category of 5.

As to `Nc1ccc(-c2ccc(N)c3c2C(=O)c2ccccc2C3=O)c2c1C(=O)c1ccccc1C2=O`, the GHS category turned out to be 5. Then `CCCCCCCCCCCCCCCCCCCCCCc1ccccc1`, with 5; and `C[Si]1(C)O[Si](C)(C)O[Si](C)(C)O[Si](C)(C)O[Si](C)(C)O1`, with 5; and `CCCCCC(=O)OC1(C(C)=O)CCC2C3CCC4=CC(=O)CCC4C3CCC21C` (centres undefined), with 5. Then `OC1CCOC1` (centres undefined), with 5; and `CC1(C)S[C@@H]2[C@H](NC(=O)[C@H](N)c3ccccc3)C(=O)N2[C@H]1C(=O)OCOC(=O)[C@@H]1N2C(=O)C[C@H]2S(=O)(=O)C1(C)C`, with 5; and `Nc1nccnc1C(=O)O`, with 5. Then `C[C@]12C[C@@H](O)[C@H]3[C@@H](CCC4=CC(=O)CC[C@@H]43)[C@@H]1CCC2=O`, with 4. For the compound `CCCCCCCCCCBr`, the GHS category was 5. Then `CC(C)C(N)C(=O)OCc1ccccc1` (centres undefined), with 5; and `COc1cc2c(s1)C(O)=C(C(=O)Nc1ccccn1)N(C)S2(=O)=O`, with 3; and `CCCCCCC(=O)OC`, with 5. Under `CN1C(C(=O)Nc2ccccn2)=C(OC(=O)C(C)(C)C)c2sccc2S1(=O)=O` stands 2. Then `COC(=O)CC(C(C)=O)C(=O)OC` (centres undefined), with 5; and `CCN(CC)C(C)C(=O)c1ccccc1` (centres undefined), with 4. `CC(C)OP(O)(=S)OC(C)C` showed a GHS category of 4. Then `CCCCCCCCCCCCCCCC`, with 5. Compound `CC(=O)OCC(=O)[C@@]1(OC(C)=O)CC[C@H]2[C@@H]3C[C@@H](F)C4=CC(=O)C(Br)=C[C@]4(C)[C@@]3(F)[C@@H](O)C[C@@]21C` yielded a GHS category of 5. Under `CC(=O)Nc1ccc(C(C[N+](=O)[O-])Sc2ccc(C)cc2)cc1` (centres undefined) stands 5.

For the compound `Cc1c(Cl)c(=O)oc2cc(OP(=O)(OCCCCCl)OCCCCCl)ccc12`, the GHS category was determined as 3.

As to `CCC(C)n1ncn(-c2ccc(N3CCN(c4ccc(OC[C@H]5CO[C@](Cn6cncn6)(c6ccc(Cl)cc6Cl)O5)cc4)CC3)cc2)c1=O` (some centres undefined), the GHS category is reported as 4. `Nc1nc2cc(Cl)cc(S(=O)(=O)O)c2o1` showed a GHS category of 4.

The compound `CCOc1cc(C)c2[nH]c(=O)sc2c1` showed a GHS category of 5. Then `FC(F)(F)OC(F)(Cl)C(F)(F)Cl` (centres undefined), with 5. Then `CN(C(=O)CNCP(=O)(O)O)S(C)(=O)=O`, with 2; and `c1ccc2oc(-c3ccc(-c4nc5ccccc5o4)s3)nc2c1`, with 5; and `COc1ccc(OC)c(C=O)c1`, with 5. Then `CC(=O)OCCC(C)CCCC(C)C` (centres undefined), with 5.

As for `CCN1CCN(C(=O)N[C@@H](C(=O)N[C@]2(OC)C(=O)N3C(C(=O)O)=C(CSc4nnnn4C)CS[C@@H]32)[C@H](C)O)C(=O)C1=O`, the GHS category came out at 5. Then `O=C1NC(=O)C(=c2[nH]c(=C3C(=O)NC(=O)NC3=O)c3ccccc23)C(=O)N1`, with 5; and `O=C1c2c(Cl)c(Cl)c(Cl)c(Cl)c2C(=O)C1c1ccc2cccc(N3C(=O)c4c(Cl)c(Cl)c(Cl)c(Cl)c4C3=O)c2n1`, with 5; and `CN(C)C(=O)c1cc(C(=O)N(C)C)c2c(n1)C(=O)C(=O)c1cc(C(=O)N(C)C)[nH]c1-2`, with 5. Then `O=C(O)c1ccccc1SSc1ccccc1C(=O)O`, with 5; and `CCCCCCCCCC(C)=O`, with 5; and `Cc1[nH]nc(C(=O)Nc2cccc(C(F)(F)F)c2)c1Br`, with 5. As for `Cc1cc(C(=O)Nc2cccc(C(F)(F)F)c2)n[nH]1`, the GHS category is listed as 5. Then `COc1ccc(C=C(C(=O)Nc2ccccc2C(=O)O)C(=O)Nc2ccccc2C(=O)O)cc1OC`, with 5. Take `CC(=O)OCC1=C(C(=O)O)N2C(=O)C(NC(=O)Cc3cccs3)C2SC1` (centres undefined): the GHS category stood at 5. `CCCCCCCC/C=C\CCCCCCCC(=O)N(CCCC)CCCC` had a GHS category of 5. In turn, `CC(=O)C(O)O` yielded a GHS category of 5. Under `Nc1cnn(CCO)c1N` stands 5. Under `CO[C@@]1(NC(=O)CSC(F)F)C(=O)N2C(C(=O)O)=C(CSc3nnnn3CCO)CO[C@@H]21` stands 5; under `CC(Oc1ccc(Oc2ncc(C(F)(F)F)cc2Cl)cc1)C(=O)O` (centres undefined), 4; under `Cc1nnc(SCCCSc2nnnn2C)o1`, 4. In turn, `CCOC(=O)COc1nn(-c2cccc(C(F)(F)F)c2)c2ncccc12` gave a GHS category of 4.

Compound `O=C1c2ccccc2C(=O)c2c(O)ccc(O)c21` showed a GHS category of 5. Under `CCCc1c(OCc2cccn3c(=O)c(-c4nn[nH]n4)cnc23)ccc(C(C)=O)c1O` stands 5; under `CC(C)C1=CC23CCC4C(C)(C(=O)N(C)C)CCCC4(C)C2CC1C1C(=O)OC(=O)C13` (centres undefined), 5.

Take `Nc1ccc(N=Nc2ccc(N=Nc3c(S(=O)(=O)O)cc4cc(S(=O)(=O)O)c(N=Nc5ccc(N=Nc6ccc(N)cc6N)cc5)c(O)c4c3N)cc2)c(N)c1`: the GHS category came out at 5. In turn, `CSC(C)=NOC(=O)N(C)SN(C)C(=O)Oc1ccc(Sc2ccc(OC(=O)N(C)SN(C)C(=O)ON=C(C)SC)cc2)cc1` came in with a GHS category of 4. Then `CCCc1nc(C)c2c(=O)nc(-c3cc(S(=O)(=O)N4CCN(CC)CC4)ccc3OCC)[nH]n12`, with 5. Compound `C=C(C)C(=O)OCC(CC)CCCC` (centres undefined) yielded a GHS category of 5. Then `NP(N)(=O)Oc1ccccc1`, with 4; and `COc1cc2nc(N3CCC(CN(C)C(=O)c4ccco4)CC3)nc(N)c2cc1OC`, with 4.

For the compound `CC#CCC(C)[C@H](O)/C=C/C1[C@H](O)C[C@@H]2C/C(=C\CCCC(=O)O)C[C@H]12` (some centres undefined), the GHS category amounted to 3. Then `O=C(Nc1cc(Cl)c(Cl)cc1Cl)c1cc(Cl)cc(-c2ccccc2)c1O`, with 5; and `CCOP(=S)(OCC)ON=C(C#N)c1ccccc1Cl`, with 5. `CC[C@H](c1ccc(O)cc1)[C@@H](CC)c1ccc(O)cc1` gave a GHS category of 5. For the compound `CC[N+](C)(CC)CCSC1=Nc2ccccc2N=C(c2ccc(Sc3ccccc3)cc2)C1`, the GHS category came to 5. Under `CSC(C)=NOC(=O)N(C)SN(C(C)(C)C)P1(=S)OCC(C)(C)CO1` stands 5; under `Clc1ccc(C(c2ccccc2Cl)C(Cl)Cl)cc1` (centres undefined), 5; under `CCCCOC(=O)c1ccccc1OC(N)=O`, 5. Compound `CC(O)C1=CCC(C(C)(C)O)CC1O` (centres undefined) came in with a GHS category of 5.
